What follows are compounds tested on Plasmodium falciparum (assay: GSK_TCMDC: Inhibition of Plasmodium falciparum 3D7 in whole erythrocytes, using parasite LDH activity as an index of growth.). Conditions: Plasmodium falciparum, 3D7.
Assay type: functional, organism-based

Structure (SMILES) | XC50
COc1ccccc1NC(=O)Nc1cccc(-c2cccc(-c3nc4cc(C(F)(F)F)ccc4[nH]3)c2)c1 | 120 nM
Cc1noc(C)c1-c1cccc(CNCc2ccc(-c3ccc(-c4nc5ccccc5[nH]4)s3)cc2)c1 | 556 nM
O=C(Nc1ccc(Cl)cc1)c1cccc(S(=O)(=O)NC2CCN(CC3CCCCC3)CC2)c1 | 722 nM
O=[N+]([O-])c1ccccc1C=NN=c1cc[nH]c2ccccc12 | 863 nM
CCNc1cc(C)nc(Nc2ccc(NS(=O)(=O)c3cc(OC)ccc3OC)cc2)n1 | 853 nM
OC(CNc1ccnc(Nc2ccc(Cl)cc2)n1)c1ccccc1C(F)(F)F (stereo not given) | 788 nM
O=C(/C=C/c1ccsc1)NC1CCC(CN2CCC(c3c[nH]c4ccccc34)CC2)CC1 (stereo not given) | 1120 nM
CN(C)CCNC(=O)N1CCCN(c2ncnc3cc(-c4ccc(Cl)cc4)sc23)CC1 | 1020 nM
CCN(CC)CCNc1ccnc2[nH]c3ccc([N+](=O)[O-])cc3c12 | 198 nM
O=C(Nc1cccc(-c2cc(-c3c(Cl)cccc3Cl)no2)c1)c1cncc(-c2cccs2)c1 | 952 nM
COc1cc(NC(=O)c2ccc(-c3ccc(C(C)=O)cc3)s2)ccc1OCCN1CCCC1 | 147 nM
CCCCNc1nccc2ccc(-c3ccncc3)cc12 | 775 nM
O=C(Nc1ccc(N2CCCN(Cc3cccc(F)c3)CC2)cc1)c1ccccc1 | 961 nM
COc1ccc(NC(=O)[C@H](Cc2ccccc2)Nc2nc(NCCN3CCCC3)ncc2C)cc1 | 988 nM
CCC(C)NS(=O)(=O)c1ccc2nc(Nc3ccc(C)cc3)n(C3CCCCC3C)c2c1 (stereo not given) | 592 nM
CCOC(=O)c1ccc(NC(=O)Nc2cccc(-c3cccc(-c4nc5cccc(C)c5[nH]4)c3)c2)cc1 | 106 nM
CC[C@H](C)CNC(=O)c1cncc(-c2ccc(CNCCOc3ccccc3)cc2)c1 | 1110 nM
CC(C)NCc1ccc(-c2ccc(NC(=O)c3cccc(Cl)c3)cc2)cc1 | 962 nM
COc1ccc2nccc(CCC3(O)CCC(NCc4cc5c(cc4F)SCC(=O)N5)CC3)c2c1 (stereo not given) | 675 nM
CCC[C@@H]([C@@H](CC(C)C)C(=O)N[C@@H](CCCCNC(=O)c1cccc(OC)c1)C(=O)Nc1nccs1)N(O)C=O | 104 nM
CCNC(C)(C)CN(Cc1ccc(-c2ccc(C(F)(F)F)cc2)cc1)C(=O)Cn1c(CCc2cccc(F)c2F)nc(=O)c2ccccc21 | 813 nM
CC(Cc1ccc(Oc2ccccc2)cc1)NCC(O)c1cccc(C(F)(F)F)c1 (stereo not given) | 674 nM
COc1ccc(-c2cc3nc4c(c(NCCCn5ccnc5)n3n2)CCCC4)cc1 | 730 nM
CCNc1cc(C(=O)N[C@@H](Cc2ccccc2)[C@H](O)CNC(C)(C)Cc2cccc(OC)c2)cc(N2CCCC2=O)c1 | 707 nM

Structure (SMILES) | XC50
COc1ccc2nccc(N3CCC(SCCNCc4ccc5c(n4)NC(=O)CS5)C3)c2n1 (stereo not given) | 253 nM
COc1cc(C(=O)NC2CCN(Cc3ccccc3)CC2)ccc1-c1nc2cc(Cl)c(Cl)cc2[nH]1 | 521 nM
O=C(/C=C/c1ccc(Cl)c(Cl)c1)NCCCCCN1CCC(NC(=O)NCCc2ccccc2)CC1 | 722 nM
CC(C)CNCc1ccc(-c2ccc(CN(C(=O)NCCc3ccccc3)C3CCN(Cc4ccccc4)CC3)cc2)cc1 | 699 nM
CCCC[C@H](NC(=O)OC(C)(C)C)C(=O)Nc1ccc(Cc2ccc(NC(=O)[C@H](CCCC)NC(=O)OC(C)(C)C)cc2)cc1 | 733 nM
CS(=O)(=O)CCNCc1cccc(-c2cc3c(Nc4ccc(OCc5ccccc5)cc4)ncnc3cn2)c1 | 734 nM
Cc1c(CCc2cccc(F)c2F)[nH]c2ccccc2c1=O | 822 nM
Cc1ccc2nc(-c3ccc(/C=C/C(=O)NC4CCN(Cc5ccccc5)CC4)cc3)[nH]c2c1C | 632 nM
CN(C)S(=O)(=O)n1ccc2c3c(N)nc(N)nc3ccc21 | 45.9 nM
COc1ccc(NC(=O)Nc2ccc(-c3ccccc3)cc2Cl)cc1N1CCN(C)CC1 | 875 nM
COc1ccc2nccc([C@@H](O)CN3CCC(NC(=O)C(c4cc5ccccc5o4)N4CCC(Cc5ccccc5)CC4)CC3)c2c1 (stereo not given in full) | 247 nM
CCCCOC(C(=O)OCC1CCCN1C)(c1ccccc1)c1ccccc1 (stereo not given) | 786 nM
N#Cc1cc(C(=O)Nc2ccccc2)c(N)nc1SCC(=O)NC(c1ccccc1)c1cccs1 (stereo not given) | 605 nM
CCCCCC(C)(C)NC[C@@H](O)[C@H](Cc1ccccc1)NC(=O)c1cc(NCC)cc(N2CCCC2=O)c1 | 674 nM
O=C(Nc1ccc(OCc2ccccc2)cc1)c1nc2ccccc2nc1Cl | 254 nM
CCCN1CCN(Cc2ccc(-c3ccc(-c4nc5ccccc5[nH]4)s3)cc2)CC1 | 611 nM
O=C(Nc1ccc(S(=O)(=O)N2CCCC2)cc1)c1cc(-c2cccnc2)nc2ccc(Cl)cc12 | 300 nM
OCC1CCN(Cc2cccc(-c3ccc(-c4nc5cc(F)ccc5[nH]4)cc3)c2)CC1 | 720 nM
CC(C)(C)c1ccc(CN2CCC(NC(=O)c3ccc(-c4ccccc4F)s3)CC2)cc1 | 1200 nM
COc1cc2nc(N(C)C3CCN(Cc4ccccc4)CC3)nc(N)c2cc1OC | 334 nM
Cc1cc(N(C)C)nc(Nc2ccc(NS(=O)(=O)c3ccccc3)cc2)n1 | 1350 nM
Cc1ccccc1C(O)CNc1ccnc(Nc2cccc(C#N)c2)n1 (stereo not given) | 875 nM
COc1ccccc1N1CCN(C(C(=O)NCc2ccc3c(c2)OCO3)c2ccc(C)cc2)CC1 (stereo not given) | 985 nM
CCNC1=NC2=C(CC(C(C)(C)C)CC2)C2(CCC(C(C)(C)C)CC2)S1 (stereo not given) | 834 nM

Structure (SMILES) | XC50
CCC[C@@H]([C@@H](CC(C)C)C(=O)N[C@H](C(=O)Nc1nccs1)C(C)(C)SCCNC(=O)OCC)N(O)C=O | 173 nM
COc1c(Br)cc(Br)cc1-c1ccc(CN2CC3CCC2CC3)[nH]1 | 693 nM
CCOc1cc(C(=O)NCc2ccc(Cl)c(Cl)c2)ccc1-c1nc2cc(Cl)ccc2[nH]1 | 804 nM
COC(=O)c1cccc(CNCc2cccc(-c3ccc(-c4nc5cccc(C)c5[nH]4)cc3)c2)c1 | 322 nM
COCc1cccc(-c2cc(-c3ccc(S(C)(=O)=O)cc3)cnc2N)c1 | 1000 nM
O=S(=O)(c1ccc(OC(F)(F)F)cc1)C1CC2CCC(C1)N2S(=O)(=O)c1ccc(Cl)c(C(F)(F)F)c1 (stereo not given) | 560 nM
O=C(Nc1ccc2[nH]c(-c3ccc4nc(NC(=O)C5CCCCC5)sc4c3)nc2c1)C1CCCCC1 | 612 nM
Cc1cccc2nc(-c3cccc(-c4cccc(CNCCc5ccncc5)c4)c3)[nH]c12 | 139 nM
Cc1csc(-c2nc(NCCc3c(C)noc3C)ncc2-c2ccsc2)n1 | 177 nM
CC1=C(C(=O)OCCOCc2ccccc2)C(c2ccccc2C(F)(F)F)C(C(=O)OCCOCc2ccccc2)=C(C)N1 | 532 nM
FC(F)(F)c1ccc2[nH]c(-c3ccc(-c4ccc(CNCc5cnn(-c6ccccc6)n5)cc4)cc3)nc2c1 | 433 nM
COc1cccc(NC(=O)COc2ccc(C(=O)Nc3nc4ccccc4[nH]3)cc2)c1 | 970 nM
NCCCNc1nc(Nc2cccc(C(N)=O)c2)c2c(=O)[nH]ccc2n1 | 594 nM
CCC(C)c1ccc(Nc2nc(C)cc(N(CC)CCCN3CCCCC3)n2)cc1 (stereo not given) | 332 nM
O=C(/C=C/c1ccc(Cl)c(Cl)c1)NCCCCCN1CCC(NC(=O)Nc2ccc([N+](=O)[O-])cc2)CC1 | 686 nM
CCN(CC)CCNC(=O)c1ccc(N/C=C2\C(=O)Nc3ccc(S(=O)(=O)Cc4c(Cl)cccc4Cl)cc32)cc1 | 840 nM
Cc1ccc(NC(=O)c2ccc(CN3CCCN(CC4CCCCC4)CC3)cc2)cc1F | 290 nM
N#Cc1ccc(N2CCN(Cc3ccc(-c4cccc(-c5nc6ccccc6[nH]5)c4)cc3)CC2)nc1 | 908 nM
CC1(C)N=C(N)N=C(N)N1c1cc(Cl)c(Cl)cc1Cl | 181 nM
CCN(CC)CCN(Cc1ccc(-c2ccc(C(F)(F)F)cc2)cc1)C(=O)Cn1c(CCc2cccc(F)c2F)cc(=O)cc1-c1ccccc1 | 778 nM
c1ccc(-c2ccc(CNCCCNc3nc4ccccc4[nH]3)cc2)cc1 | 783 nM
CCN(CC)/C(=N/C(=N)Nc1ccc(Br)cc1)NCCCCCCN/C(=N\C(=N)Nc1ccc(Br)cc1)N(CC)CC | 384 nM
CC(=O)Nc1cccc(C(=O)Nc2cccc(-c3cccc(-c4nc5cc(F)ccc5[nH]4)c3)c2)c1 | 549 nM
CCOC(=O)NCC(=O)Nc1cccc(-c2cccc(-c3nc4cc(C(F)(F)F)ccc4[nH]3)c2)c1 | 626 nM

Structure (SMILES) | XC50
COCCSc1nc2scc(C)c2c(=O)n1Cc1cccc(OC)c1 | 912 nM
Cc1ccc(OCC2CCN(c3ncc(C(=O)NCCCN4CCCC4=O)cc3Cl)CC2)cc1 | 1260 nM
O=C(/C=C/c1ccc(I)cc1)NCCCCCN1CCC(c2c[nH]c3ccccc23)CC1 | 836 nM
O=C(Nc1ccc(C(=O)OCC2CCCN3CCCCC23)cc1)c1ccc([N+](=O)[O-])cc1 (stereo not given) | 716 nM
N=C(N)NCCN(Cc1ccccc1)c1ccc(Cl)cc1 | 48 nM
N=C(N)Nc1ccc(CCc2ccc(NC(=N)N)cc2)cc1 | 289 nM
COc1cc(-n2c(CN3CCCC3)nc3cc(-c4ccc(Cl)cc4)sc3c2=O)ccc1OCCN1CCCC1 | 1040 nM
CN(C)CCc1coc2ccc(C(=O)Nc3ccc(-c4ccc(O)cc4)cc3)cc12 | 1080 nM
COc1cc(-c2ccccc2)ccc1C(=O)Nc1ccc2c(c1)N(C)CCC2 | 325 nM
c1ccc(COc2ccc(Cn3ccc(-c4ccc(-n5ccnc5)cc4)n3)cc2)cc1.c1ccc(COc2ccc(Cn3nccc3-c3ccc(-n4ccnc4)cc3)cc2)cc1 | 1020 nM
Cc1noc(C)c1S(=O)(=O)N(C)Cc1ccc(-c2ccc(Cl)cc2)o1 | 362 nM
COc1ccc(CC(=O)NC(CCN2CCC3(CCc4ccccc43)CC2)c2ccc(Cl)c(Cl)c2)cc1 (stereo not given) | 525 nM
COc1ccc2oc(=O)c(C#N)c(O)c2c1 | 211 nM
CCCC(=O)Nc1ccc(OCCCCN(Cc2ccccc2C(F)(F)F)c2ccc(C(F)(F)F)c(C#N)c2)cc1 | 973 nM
COc1ccc2nc(-c3cc(-c4ccc(NC(=O)CN5CCOCC5)cc4)cnc3N)[nH]c2c1 | 616 nM
C[C@@H](Oc1cc(-n2cnc3ccc(NC(=O)NC(C)(C)C)cc32)sc1C(N)=O)c1ccccc1Cl | 330 nM
Cc1sc2nc(CN3CCCC3)nc(-n3c(NCCO)nc4ccccc43)c2c1C | 1240 nM
CCc1cccc(NC(=O)c2ccc(CN3CCCN(CC4CCCCC4)CC3)cc2)c1 | 402 nM
Cc1ccc(OCCCCONC(=O)c2ccccc2)cc1 | 145 nM
CCc1ccc(Cc2cnc3nc(N)nc(N)c3c2C)cc1 | 202 nM
Cc1cccc2nc(-c3ccc(-c4ccc(CN5CCCCC5)cc4)s3)[nH]c12 | 521 nM
Cc1nc(C)c(-c2ccc(-c3ccc(F)cc3)cc2)c(O)c1Cl | 655 nM
OC(c1ccc2ccccc2c1)C1CN(CCc2ccccc2)CCC1(O)c1ccccc1 (stereo not given) | 554 nM

Reference: ChEMBL document CHEMBL1157539, “Thousands of chemical starting points for antimalarial lead identification” (Nature, 2010)
